Data as given in US7507547B2, “Screening assays for antioxidants and antiproliferative compounds” (University of Massachusetts, priority 2004, dated 2009).
Read-outs that look alike come from different tables or passages of the source.

Assays:
[1] = target: T1, NTR1 (Homo sapiens, UniProt P30989); test: ^125I-NT binding to PC3 cells; details: for NT Binding Assay: ability to enhance NT binding in PC3 cells; for NT binding increased as much as / up to (fold): maximal enhancement of NT binding to PC3 cells; for Effect on NT binding in PC3 cells: n=3
T1 construct: endogenous in cells; host or cells: PC3 cells (ATCC)

[2] = set-up: key: +: All of the compounds listed in Table 12 were anticancerous; details: from anticancer literature; cited from earlier work
[3] = test system: NT-induced inositol phosphate (IP) formation in PC3 cells; test: NT-induced IP formation in PC3 cells; assay type: cell-based; details: for IC50: Homo sapiens, PC-3; for IP Formation Efficacy (% decrease): maximal % decrease in NT-induced IP formation
[4] = test system: PC3 cells; test: NT-induced proliferation of PC3 cells (^3H-thymidine); assay type: cell-based; details: Homo sapiens, PC-3; 24 hours, 10 nM NT; read-out: IC50 for inhibition of NT-induced proliferation
[5] = [agent] giving 50% decrease in IP formation
[6] = [agent] that decreased IP formation by 40%
[7] = [agent] giving 75% increase in NT binding
[8] = maximal % increase in NT binding observed for each agent
[9] = general reducing agents and antioxidants

T1 sequence (P30989 whole entry): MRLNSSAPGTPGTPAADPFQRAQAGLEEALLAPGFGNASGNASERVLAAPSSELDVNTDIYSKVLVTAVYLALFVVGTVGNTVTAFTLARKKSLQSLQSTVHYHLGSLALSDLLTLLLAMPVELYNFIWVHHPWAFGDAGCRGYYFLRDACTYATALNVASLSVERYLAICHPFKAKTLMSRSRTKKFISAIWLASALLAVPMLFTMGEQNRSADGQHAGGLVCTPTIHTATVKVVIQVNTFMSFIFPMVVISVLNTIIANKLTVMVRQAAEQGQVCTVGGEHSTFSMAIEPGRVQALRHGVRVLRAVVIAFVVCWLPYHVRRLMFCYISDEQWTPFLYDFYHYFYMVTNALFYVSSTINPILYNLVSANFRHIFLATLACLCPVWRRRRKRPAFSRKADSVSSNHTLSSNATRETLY

O=CC[C@@H](O)[C@H](O)[C@H](O)CO [2-deoxyglucose]
NT Binding Assay [1]: +
Anti-cancer [2]: +

CCOC(=O)C1=C(C)NC(C)=C(C(=O)OC)C1c1cccc(Cl)c1Cl (stereo not drawn) [felodipine]
IC50 [3, 5]: 1 µM

antimycin A
Anti-cancer [2]: +

O=C(/C=C/c1ccc(O)c(O)c1)OCCc1ccccc1 [CAPE, caffeic acid phenethyl ester]
NT Binding Efficacy % increase ([1]; LOX blockers): 220 % increase
NT binding increased as much as / up to (fold) [1]: ≤ 2.8 fold
IC50 [3, 6]: 18 µM

N.N.[Cl][Pt][Cl] [cis-platin]
NT Binding Assay [1]: +
Anti-cancer [2]: +

COC(=O)c1c(C)[nH]c(C)c1C(=O)c1ccccc1Cc1ccccc1 [FPL-64176]
EC50 [1, 7]: 29 µM

CC(=O)OCOC(=O)CN(CC(=O)OCOC(C)=O)c1ccccc1OCCOc1ccccc1N(CC(=O)OCOC(C)=O)CC(=O)OCOC(C)=O [BAPTA-AM, 1,2-bis(o-aminophenoxy)ethane-N,N,N′,N′-tetraacetic acid tetra(acetoxymethyl) ester]
Effect on NT binding ([1]; 50 μM BAPTA-AM): nor was NT binding altered

O=c1cc(-c2ccccc2)oc2cc(O)c(O)c(O)c12 [Baicalein, baicalein]
IC50 [3, 6]: > 100 µM
Anti-cancer [2]: +

c1cnc2c(c1)ccc1cccnc12 [o-phenanthroline]
NT Binding Assay [1]: +
Anti-cancer [2]: +

O=c1oc2c(O)c(O)cc3c(=O)oc4c(O)c(O)cc1c4c23 [ellagic acid]
Effect on NT binding in PC3 cells ([1]; used at 10-100 μM): without effect

CN1CCN(CCCN2c3ccccc3Sc3ccc(C(F)(F)F)cc32)CC1 [trifluoperazine]
NT Binding Efficacy % increase [1, 8]: 16 % increase
IC50 ([3]; [agent] at which IP formation was decreased by 50%): > 100 µM
IP Formation Efficacy (% decrease) [3]: 14 % decrease

[BH4-].[Na+] [sodium borohydride]
Effect on NT binding [1]: not much affected
Effect on NT binding in PC3 cells ([1]; used at 1-3 mM): without effect

Mevinolin
NT Binding Assay [1]: +
Anti-cancer [2]: +

COc1ccc2cc1Oc1ccc(cc1)C[C@H]1c3cc(c(OC)cc3CCN1C)Oc1c(OC)c(OC)cc3c1[C@H](C2)N(C)CC3 [tetrandrine]
NT Binding Efficacy % increase [1, 8]: 35 % increase

Cc1c(C)c2c(c(C)c1O)CCC(C)(C(=O)O)O2 (stereo not drawn) [trolox]
Effect on NT binding [1, 9]: not much affected
Effect on NT binding in PC3 cells ([1]; used at 10-100 μM): without effect

Cc1cc2nc3c(=O)[nH]c(=O)nc-3n(C[C@H](O)[C@H](O)[C@H](O)CO)c2cc1C [riboflavin]
Effect on NT binding [1, 9]: not much affected
Effect on NT binding in PC3 cells ([1]; used at 20-180 μM): ineffective

CCOC(=O)C1=C(C)NC(C)=C(C(=O)OC)C1c1cccc([N+](=O)[O-])c1 (stereo not drawn) [nitrendipine]
IC50 [3, 5]: 2 µM

CC1=CC(=O)c2ccccc2C1=O [vitamin K, menadione]
NT binding (% of control) at 180 µM ([1]; 180 μM): 168 ± 8%

O=C1O[C@H]([C@@H](O)CO)C(O)=C1O [ascorbic acid]
Effect on NT binding [1, 9]: not much affected
Effect on NT binding in PC3 cells ([1]; used at 20-180 μM): ineffective

O=c1cc(-c2ccc(O)c(O)c2)oc2cc(O)cc(O)c12 [luteolin]
EC50 [1, 7]: 40 µM
NT Binding Assay [1]: +
IC50 [3, 5]: 38 µM
Anti-cancer [2]: +

C=C(C)[C@H]1Cc2c(ccc3c2O[C@@H]2COc4cc(OC)c(OC)cc4[C@@H]2C3=O)O1 [rotenone]
NT Binding Assay [1]: +
Anti-cancer [2]: +

Oc1cc(O)c2c(c1)O[C@H](c1ccc(O)c(O)c1)[C@@H](O)C2 [(+)-catechin]
Effect on NT binding in PC3 cells ([1]; used at 10-100 μM): without effect

CC1=C(C)C(=O)C(CCCCC#CCCCC#CCO)=C(C)C1=O [AA861]
NT Binding Efficacy % increase ([1]; LOX blockers): 155 % increase
IC50 [3, 6]: 7 µM

Fc1ccc(C(c2ccc(F)cc2)N2CCN(C/C=C/c3ccccc3)CC2)cc1 [flunarizine]
NT Binding Efficacy % increase [1, 8]: 45 % increase

COc1cc2ncnc(Nc3cccc(Cl)c3)c2cc1OC [AG1478]
NT Binding Assay [1]: +
Anti-cancer [2]: +

C[C@@H]1O[C@@H](OC[C@H]2O[C@@H](Oc3c(-c4ccc(O)c(O)c4)oc4cc(O)cc(O)c4c3=O)[C@H](O)[C@@H](O)[C@@H]2O)[C@H](O)[C@H](O)[C@H]1O [rutin]
Efficacy for altering NT binding to NTR ([1]; flavonoids): inactive

Clc1ccc(COC(Cn2ccnc2)c2ccc(Cl)cc2Cl)c(Cl)c1 (stereo not drawn) [miconazole]
IP Formation Efficacy (% decrease) [3]: 54 % decrease

O=c1c(-c2ccc(O)cc2)coc2cc(O)cc(O)c12 [genistein]
NT Binding Assay [1]: +
Anti-cancer [2]: +

O=C(O)CN(CCOCCOCCN(CC(=O)O)CC(=O)O)CC(=O)O [EGTA, ethylene glycol tetra-acetic acid]
Increase in NT binding [1]: 38±6 % increase

CC(C)=CCCC(C)=CCCC(C)=CCO [farnesol]
NT Binding Assay [1]: +
Anti-cancer [2]: +

N[C@@H](CCC(=O)N[C@@H](CS)C(=O)NCC(=O)O)C(=O)O [glutathione]
Effect on NT binding in PC3 cells ([1]; used at 1-3 mM): without effect

(−)-epigallocatechin gallate
Effect on NT binding in PC3 cells ([1]; used at 10-100 μM): without effect

Cc1cc(C)c(/C=C2\C(=O)Nc3ccccc32)[nH]1 [SU5416]
Anti-cancer [2]: +

bisindole maleimide
NT Binding Assay [1]: +
Anti-cancer [2]: +

Cn1cc(C2=C(c3ccc(Cl)cc3Cl)C(=O)NC2=O)c2ccccc21 [SB-216763]
NT Binding Assay [1]: +
Anti-cancer [2]: +

c1ccc2c(c1)[I+]c1ccccc1-2 [Diphenylene iodonium]
NT Binding Assay [1]: +
IC50 [3, 5]: 35 µM
Anti-cancer [2]: +

Cc1ncc(CO)c(CO)c1O [pyridoxine]
Effect on NT binding [1, 9]: not much affected
Effect on NT binding in PC3 cells ([1]; used at 20-180 μM): ineffective

CC/C(=C(/CC)c1ccc(O)cc1)c1ccc(O)cc1 [diethylstilbesterol]
NT Binding Assay [1]: +
Anti-cancer [2]: +

CCCc1c(OCCCCc2nnn[nH]2)ccc(C(C)=O)c1O [LY171883]
NT Binding Efficacy % increase ([1]; LOX blockers): 157 % increase
EC50 ([1]; [agent] giving 100% increase in NT binding): 34 µM

O=C(NCCCCCCNC(=O)ON=C1CCCCC1)ON=C1CCCCC1 [RHC-80267]
NT Binding Assay [1]: +
Anti-cancer [2]: +

COc1ccc([C@@H]2Sc3ccccc3N(CCN(C)C)C(=O)[C@@H]2OC(C)=O)cc1 [Diltiazem, diltiazem]
NT Binding Efficacy % increase [1, 8]: 38 % increase
NT binding increased as much as / up to (fold) [1]: ≤ 1.4 fold

CC(=O)N[C@@H](CS)C(=O)O [N-acetyl cysteine]
Effect on NT binding in PC3 cells ([1]; used at 1-3 mM): without effect

Cc1ncc(C[n+]2csc(CCO)c2C)c(N)n1 [thiamine]
Effect on NT binding [1, 9]: not much affected
Effect on NT binding in PC3 cells ([1]; used at 20-180 μM): ineffective

CC(=O)O[C@H]1C(=O)[C@@]2(C)[C@H]([C@H](OC(=O)c3ccccc3)[C@]3(O)C[C@H](OC(=O)[C@H](O)[C@@H](NC(=O)c4ccccc4)c4ccccc4)C(C)=C1C3(C)C)[C@]1(OC(C)=O)CO[C@@H]1C[C@@H]2O [Taxol]
NT Binding Assay [1]: +

O[C@H](CS)[C@H](O)CS (racemic) [DTT, dithiothreitol]
Effect on NT binding [1, 9]: not much affected

CC1=C(/C=C/C(C)=C/C=C/C(C)=C/C(=O)O)C(C)(C)CCC1 [Retinoic Acid, retinoic acid]
NT Binding Efficacy % increase ([1]; LOX blockers): 180 % increase
IC50 [3, 6]: 7 µM

Cc1cc2c(C(C)C)c(O)c(O)c(C=O)c2c(O)c1-c1c(C)cc2c(C(C)C)c(O)c(O)c(C=O)c2c1O [Gossypol, gossypol]
IC50 [3, 6]: 20 µM

COC(=O)C1=C(C)NC(C)=C([N+](=O)[O-])C1c1ccccc1C(F)(F)F (stereo not drawn) [BayK-8644]
EC50 [1, 7]: 16 µM

COCCOC(=O)C1=C(C)NC(C)=C(C(=O)OC(C)C)C1c1cccc([N+](=O)[O-])c1 (stereo not drawn) [NIM, nimodipine]
IC50 [3, 5]: 6 µM

COc1ccc2c(c1)c(C1=C(c3c[nH]c4ccccc34)C(=O)NC1=O)cn2CCCN(C)C [Go-6983]
NT Binding Assay [1]: +
Anti-cancer [2]: +

Cc1c(C)c2c(c(C)c1O)CC[C@@](C)(CCC[C@H](C)CCC[C@H](C)CCCC(C)C)O2 [α-tocoferol]
Effect on NT binding in PC3 cells ([1]; used at 20-180 μM): ineffective

CC1=C(/C=C/C(C)=C/C=C/C(C)=C/C=C/C=C(C)/C=C/C=C(C)/C=C/C2=C(C)CCCC2(C)C)C(C)(C)CCC1 [β-carotene]
Effect on NT binding in PC3 cells ([1]; used at 20-180 μM): ineffective

COc1ccc(O)c(C(C)(C)C)c1 [BHA, butylated hydroxy anisole]
EC50 [1, 7]: 110 µM

O=c1cc(-c2ccc(O)cc2)oc2cc(O)cc(O)c12 [Apigenin]
NT Binding Assay [1]: +
Anti-cancer [2]: +

COC(=O)C1=C(C)NC(C)=C(C(=O)OCCN(C)Cc2ccccc2)C1c1cccc([N+](=O)[O-])c1 (stereo not drawn) [nicardipine]
IC50 [4]: 0.1 µM
IC50 [3, 5]: 3 µM
